How the values were obtained:
Hepatocytes = test: HCS injury score panel in primary hepatocytes; assay type: cell-based
Experimental: (§1) In vitro assays were also performed in primary cells (hepatocytes and neurons) to evaluate BNIPSpd (9) potential toxicity: (a) host cell nuclei counting after HOECHST staining, (b) viability by measuring the metabolism of WST-8 probe, (c) apoptosis induction through caspase 3/7 activation, (d) evaluation of mitochondrial dysfunction by measuring the membrane potential using TMRM probe, (e) membrane integrity by measuring the extracellular LDH, (f) DNA damage by histone H2AX phosphorylation (exclusively in hepatocytes) and (g) imaging of neurite outgrowth (exclusively in neurons).
The assays were performed 24 hrs after cell collection and isolation. […] Then, absorbance at 450 nm was measured in order to analyse cell viability (WST-8). Cells were washed three times and analysed using the automatic fluorescence microscope BD Pathway 855. […] Data were analysed with AttoVision (Becton Dickinson). […] LDH release was measured in mU/L in culture media obtained from cells subjected to treatments for 24 hrs, by measuring the released LDH rate of oxidation of NADH to NAD^+ at 340 nm using Synergy 2 from BioTech.
DNA damage was evaluated by washing cells with PBS and fixation using paraformaldehyde 3% in PBS for 15 mins. […] To determine the DNA damage, intensity in the nuclei was analyzed using AttoVision software (Becton Dickinson). […]

Neurons = test: HCS injury score panel in primary neurons; assay type: cell-based
Experimental: as §1
The assays were performed 24 hrs after cell collection and isolation. For apoptosis, TMRM, HOECHST and WST-8 assays, cells were seeded at a density of 5000 cells/well in coated 96-well plates, incubated for 24 hrs with the compound and then stained during 1 hour with the following fluorescent probes: 5 μM CellEvent Caspase 3/7 Green Detection Reagent (Invitrogen) for measuring caspase 3/7 activation, 50 μM tetramethyl rhodamine methyl ester (TMRM probe, Anaspec Inc.) for measuring mitochondrial depolarization related to transient cytosolic Ca^2+ signals, 5 μg/mL of HOECHST (Sigma-Aldrich) for nuclei detection and 10 μL/well of WST-8 reagent (Sigma-Aldrich) to detect viable cells. Then, absorbance at 450 nm was measured in order to analyse cell viability (WST-8). Cells were washed three times and analysed using the automatic fluorescence microscope BD Pathway 855. Pictures were taken using a 20 X objective and 488/515 nm ex/em filters for CellEvent Caspase 3/7 reagent, 555/ 645 nm ex/em filters for TMRM and 380/460 nm ex/em filters for HOECHST. Data were analysed with AttoVision (Becton Dickinson). The LDH assay was performed according to the manufacturer's protocol, Cytotoxicity Detection Kit LDH (Roche). LDH release was measured in mU/L in culture media obtained from cells subjected to treatments for 24 hrs, by measuring the released LDH rate of oxidation of NADH to NAD^+ at 340 nm using Synergy 2 from BioTech.
For the neurite outgrowth assay, samples were washed with PBS, fixed using methanol for 10 mins at -20°C. The fixed samples were washed three times with PBS and permeabilized with PBS-Triton X-100 0.3% for 10 mins, washed three times and then blocked with BSA 0.5% in PBS for 30 mis. […] Neurite average length was calculated using the neurite outgrowth module of AttoVision software (Becton Dickinson).
Nimesulide (400 μM) was included as a positive toxicity control, and the vehicle as a negative control. The relative percentage of deviation from the negative control was quantified and assigned with a number from 0 to 5 according to the following criteria: 0 (0–20% deviation), 1 (20–40%), 2 (40–60%), 3 (60–100%), 4 (100–1000%), or 5 (>1000% deviation). […]

[1] = combined score of cytotoxicity panel, 24 hrs

With `O=C1c2cccc3cccc(c23)C(=O)N1CCCNCCCCNCCCNCCCN1C(=O)c2cccc3cccc(c23)C1=O` [Compound 9, BNIP Spermidine] the “Injury score for hepatocytes” value (Hepatocytes; at 50 μM) was “low injury (low injury (1 to <5))”, the “Injury score for hepatocytes” value (Hepatocytes; [1]) was “low injury (low injury (1 to <5))” and the “Concentration from which toxicity was most significant in neurons” value (Neurons; HCS panel) was 12.5 µM. For the same compound, the “Concentration up to which no effects in neurons” value (Neurons; HCS panel) was 0.7 µM, the “Injury score for neurons” value (Neurons; at higher concentrations (50 μM)) was “high levels” and the “Injury score for neurons” value (Neurons; [1]) was “moderate injury (moderate injury (≥5-to <12))”.

Reference: paper PMC5794198, “Inhibitors of Trypanosoma cruzi Sir2 related protein 1 as potential drugs against Chagas disease” (PLoS Neglected Tropical Diseases, 2018)
